Here are results for 35 molecules from BindingDB's records for doi:10.7270/Q2M32T6M (Vanderbilt Screening Center for GPCRs, Ion Channels and …, 2009).

pEC50: −log10 of the molar value. Non-standard residues stand in square brackets, D forms with d. Residues, ends and D or L forms follow the SMILES beside them. ξ: configuration not given here. *: point of attachment. ξF = NC(Cc1ccccc1)C(=O)O; Cbz = O=C(OCc1ccccc1)*

For one test, the target named is T1, Solute carrier family 12 member 5 (Homo sapiens, UniProt Q9H2X9).
T1 sequence (Q9H2X9 whole entry): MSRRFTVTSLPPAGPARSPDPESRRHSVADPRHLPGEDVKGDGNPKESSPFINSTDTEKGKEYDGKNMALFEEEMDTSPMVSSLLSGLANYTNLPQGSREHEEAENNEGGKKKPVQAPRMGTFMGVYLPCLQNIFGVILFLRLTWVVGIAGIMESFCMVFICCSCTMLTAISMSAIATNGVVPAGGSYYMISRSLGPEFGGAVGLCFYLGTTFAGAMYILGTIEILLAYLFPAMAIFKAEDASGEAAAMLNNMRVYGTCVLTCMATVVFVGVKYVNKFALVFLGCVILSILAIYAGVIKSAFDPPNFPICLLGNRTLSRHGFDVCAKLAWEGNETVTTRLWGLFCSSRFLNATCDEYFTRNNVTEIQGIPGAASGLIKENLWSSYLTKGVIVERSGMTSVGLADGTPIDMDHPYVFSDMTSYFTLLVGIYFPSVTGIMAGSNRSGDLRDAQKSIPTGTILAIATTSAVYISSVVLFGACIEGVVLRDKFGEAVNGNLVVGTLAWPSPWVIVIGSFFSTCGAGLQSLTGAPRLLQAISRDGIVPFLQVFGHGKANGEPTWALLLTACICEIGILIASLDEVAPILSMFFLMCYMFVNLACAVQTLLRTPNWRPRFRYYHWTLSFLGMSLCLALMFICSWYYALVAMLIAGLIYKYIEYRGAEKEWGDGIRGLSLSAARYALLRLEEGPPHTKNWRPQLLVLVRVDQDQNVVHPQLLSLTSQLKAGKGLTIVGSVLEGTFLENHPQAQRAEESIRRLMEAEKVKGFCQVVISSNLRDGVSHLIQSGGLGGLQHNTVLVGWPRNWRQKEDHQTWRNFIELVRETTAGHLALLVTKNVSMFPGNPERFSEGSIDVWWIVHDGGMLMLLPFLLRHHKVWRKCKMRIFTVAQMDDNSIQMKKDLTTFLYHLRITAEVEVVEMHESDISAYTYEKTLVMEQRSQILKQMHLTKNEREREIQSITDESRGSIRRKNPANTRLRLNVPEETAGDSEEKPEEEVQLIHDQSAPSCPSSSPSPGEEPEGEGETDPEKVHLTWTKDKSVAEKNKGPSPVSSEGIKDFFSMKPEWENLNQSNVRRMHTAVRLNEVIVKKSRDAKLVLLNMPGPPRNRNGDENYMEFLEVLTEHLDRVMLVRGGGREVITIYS
Nature of the test: concentration-response of KCC2 transport modulators – cell-based, HEK293 KCC2, FluoZin-2 fluorescence, dose response (AID 1736).
Settings: not given
`O=C(Cn1cnc2c(nnn2Cc2ccc(F)cc2)c1=O)NCc1ccc2c(c1)OCO2` [2-[3-(4-fluorobenzyl)-7-keto-triazolo[4,5-d]pyrimidin-6-yl]-N-piperonyl-acetamide]: the pEC50 (usually the negative decadic logarithm of the EC50, by convention in mol/L) was 5.83.

As for `O=[N+]([O-])c1cc(-n2c(O)c3c(c2O)CCCC3)ccc1NC1CCN(Cc2ccccc2)CC1` [2-[3-nitro-4-[[1-(phenylmethyl)-4-piperidinyl]amino]phenyl]-3a,4,5,6,7,7a-hexahydroisoindole-1,3-dione], the pEC50 is 4.55.

On to `Cc1cccc(OCc2nnc(SCC(=O)c3cccs3)n2C)c1C` [2-[5-(2,3-Dimethyl-phenoxymethyl)-4-methyl-4H-[1,2,4]triazol-3-ylsulfanyl]-1-thiophen-2-yl-ethanone], for which the pEC50 is 5.03.

`O=C(CSc1nnc(-c2ccc(F)cc2)o1)N1CCN(C(=O)c2ccco2)CC1` [2-[5-(4-Fluoro-phenyl)-[1,3,4]oxadiazol-2-ylsulfanyl]-1-[4-(furan-2-carbonyl)-piperazin-1-yl]-ethanone]: the pEC50 was 5.27.

In turn, `CC1CCCCN1C(=O)CSc1ccc(-c2ccc(F)cc2)nn1` (stereo not given) [2-[6-(4-Fluoro-phenyl)-pyridazin-3-ylsulfanyl]-1-(2-methyl-piperidin-1-yl)-ethanone] gave a negative logarithm of the EC50 (pEC50) of 5.42.

For `CC1CCN(C(=O)CSc2ccc(-c3ccc(F)cc3)nn2)CC1` [2-[6-(4-Fluoro-phenyl)-pyridazin-3-ylsulfanyl]-1-(4-methyl-piperidin-1-yl)-ethanone], the negative-log EC50 (pEC50) was 5.36.

Molecule `Cc1ccc(NC(=O)CSc2ccc(-c3ccco3)nn2)cc1` [2-[6-(furan-2-yl)pyridazin-3-yl]sulfanyl-N-(4-methylphenyl)acetamide] gave a negative logarithm of the EC50 (pEC50) of 5.34.

Molecule `CCC(Cc1ccccc1)NC(=O)CN(C)S(=O)(=O)c1ccc2c(c1)c(=O)n(C)c(=O)n2C` (stereo not given) [2-[(1,3-dimethyl-2,4-dioxo-6-quinazolinyl)sulfonyl-methylamino]-N-(1-phenylbutan-2-yl)acetamide] gave a pEC50 of 5.11. This pEC50 lies 0.23 log units lower than the previous one.

The molecule `Cc1[nH]c2ccccc2c1SCC(=O)N1CCN(c2ccccc2)CC1` [2-[(2-methyl-1H-indol-3-yl)thio]-1-(4-phenyl-1-piperazinyl)ethanone] had a negative logarithm of the EC50 (pEC50) of 5.26.

Turning to `Cc1ccc(/C=C2/Sc3ccccc3N(CC(=O)NCCCOC(C)C)C2=O)cc1` [2-[(2E)-2-[(4-methylphenyl)methylidene]-3-oxidanylidene-1,4-benzothiazin-4-yl]-N-(3-propan-2-yloxypropyl)ethanamide], the pEC50 is 4.68.

`COc1ccc(S(=O)(=O)N(CCc2ccccc2)CC(=O)O)cc1Cl` [2-[(3-chloranyl-4-methoxy-phenyl)sulfonyl-(2-phenylethyl)amino]ethanoic acid]: the negative-log EC50 (pEC50) was 4.92.

Molecule `O=C(NCCOc1ccccc1F)c1ccccc1SCc1ccc(F)cc1` [2-[(4-fluorobenzyl)thio]-N-[2-(2-fluorophenoxy)ethyl]benzamide] showed a pEC50 of 6.14.

With `Cc1ccc(NC(=O)c2ccccc2NS(=O)(=O)c2ccc(Cl)s2)cc1` [2-[(5-chloranylthiophen-2-yl)sulfonylamino]-N-(4-methylphenyl)benzamide], the pEC50 was 5.97.

In turn, `N#Cc1c(NC(=O)CSc2nc(N)cc(=O)[nH]2)sc2c1CCCCCC2` [2-[(6-amino-4-oxo-1H-pyrimidin-2-yl)sulfanyl]-N-(3-cyano-4,5,6,7,8,9-hexahydrocycloocta[b]thiophen-2-yl)acetamide] gave a negative logarithm of the EC50 (pEC50) of 3.63.

In turn, `CCOC(=O)CNC(=O)C(Cc1ccccc1)NC(=O)OCc1ccccc1` (stereo not given) [2-[[1-oxo-3-phenyl-2-(phenylmethoxycarbonylamino)propyl]amino]acetic acid ethyl ester] (Cbz-[ξF]-Gly-OEt) showed a negative logarithm of the EC50 (pEC50) of 5.67.

With `Cc1ccc(Cn2c(SCC(=O)Nc3cc(C)on3)nc3ccccc3c2=O)cc1` [2-[[4-keto-3-(4-methylbenzyl)quinazolin-2-yl]thio]-N-(5-methylisoxazol-3-yl)acetamide], the negative logarithm of the EC50 (pEC50) is 4.19.

`Cc1ccccc1-c1nc(C[S+]([O-])CC(=O)NCc2ccccc2)c(C)o1` (stereo not given) [2-[[5-methyl-2-(2-methylphenyl)-1,3-oxazol-4-yl]methylsulfinyl]-N-(phenylmethyl)ethanamide] showed a pEC50 of 5.09.

Turning to `Cc1ccccc1-c1nc(CS(=O)(=O)CC(=O)NCc2ccccc2)c(C)o1` [2-[[5-methyl-2-(2-methylphenyl)-1,3-oxazol-4-yl]methylsulfonyl]-N-(phenylmethyl)ethanamide], the pEC50 is 3.96.

The molecule `COc1ccc(-c2cc(CNC(=O)CN(C)Cc3ccccc3)on2)cc1` [2-[benzyl(methyl)amino]-N-[[3-(4-methoxyphenyl)-1,2-oxazol-5-yl]methyl]acetamide] had a negative-log EC50 (pEC50) of 4.61.

`CC(=O)NC(C)C(=O)OCC(=O)c1ccc(-c2ccccc2)cc1` (stereo not given) [2-acetamidopropanoic acid [2-oxo-2-(4-phenylphenyl)ethyl] ester] showed a pEC50 of 4.86.

The molecule `N#CC1=C(SCc2ccccc2)N=C(N)C(C#N)C12CCCCC2` (stereo not given) [2-azanyl-4-(phenylmethylsulfanyl)-3-azaspiro[5.5]undeca-1,4-diene-1,5-dicarbonitrile] had a pEC50 of 4.92.

Take `CN(Cc1ccccc1)S(=O)(=O)c1ccc(Cl)c(C(=O)NCCc2ccccn2)c1` [2-chloranyl-5-[methyl-(phenylmethyl)sulfamoyl]-N-(2-pyridin-2-ylethyl)benzamide]: the negative-log EC50 (pEC50) is 6.42.

`Cc1ccc(-c2csc(NC(=O)CCNC(=O)c3ccccc3Cl)n2)cc1` [2-chloranyl-N-[3-[[4-(4-methylphenyl)-1,3-thiazol-2-yl]amino]-3-oxidanylidene-propyl]benzamide] showed a pEC50 of 5.69.

With `O=C(NC(=S)Nc1nc(-c2cccc([N+](=O)[O-])c2)cs1)c1ccccc1Cl` [2-chloranyl-N-[[4-(3-nitrophenyl)-1,3-thiazol-2-yl]carbamothioyl]benzamide], the negative logarithm of the EC50 (pEC50) is 5.13.

On to `COc1ccccc1C(=O)NC1CCN(C(=S)NCCc2ccccc2)CC1` [2-methoxy-N-[1-(2-phenylethylcarbamothioyl)piperidin-4-yl]benzamide], for which the negative logarithm of the EC50 (pEC50) is 5.37.

On to `Cc1cc([N+](=O)[O-])ccc1NCc1ccccc1` [2-methyl-4-nitro-N-(phenylmethyl)aniline], for which the pEC50 was 5.43. This pEC50 and that of the molecule before are within 0.2 log units of each other.

In turn, `O=C(C1CCN(S(=O)(=O)c2cccc3nsnc23)CC1)N1CCc2ccccc2C1` [2-{[1-(2,1,3-benzothiadiazol-4-ylsulfonyl)piperidin-4-yl]carbonyl}-1,2,3,4-tetrahydroisoquinoline] had a negative logarithm of the EC50 (pEC50) of 4.62. Against the preceding molecule, the pEC50 is 0.81 log units lower.

In turn, `Cc1noc(/C=C/c2ccco2)c1S(=O)(=O)N1CCC(C(=O)N2CCc3ccccc3C2)CC1` [2-{[1-({5-[(E)-2-(2-furyl)vinyl]-3-methylisoxazol-4-yl}sulfonyl)piperidin-4-yl]carbonyl}-1,2,3,4-tetrahydroisoquinoline] had a negative-log EC50 (pEC50) of 5.41.

The same test, now with this note: inactive by the depositor's call.
As for `CC(C)CC(c1nnnn1Cc1cccs1)N1CCN(c2nc3ccccc3s2)CC1` (stereo not given) [2-[4-[3-methyl-1-[1-(2-thenyl)tetrazol-5-yl]butyl]piperazino]-1,3-benzothiazole], the negative logarithm of the EC50 (pEC50) was 4.33.

Regarding `N#Cc1nc(COc2ccccc2F)oc1NCc1ccc(F)cc1` [2-[(2-fluoranylphenoxy)methyl]-5-[(4-fluorophenyl)methylamino]-1,3-oxazole-4-carbonitrile], the pEC50 was 5.73.

The molecule `O=C(CSc1nc2cc(Cl)ccc2s1)Nc1cccc(S(=O)(=O)N2CCOCC2)c1` [2-[(5-chloranyl-1,3-benzothiazol-2-yl)sulfanyl]-N-(3-morpholin-4-ylsulfonylphenyl)ethanamide] had a pEC50 of 4.60.

The molecule `N=C1SCC(=O)N1c1ncc(Cc2cccc(Cl)c2)s1` [2-azanylidene-3-[5-[(3-chlorophenyl)methyl]-1,3-thiazol-2-yl]-1,3-thiazolidin-4-one] had a pEC50 of 5.50.

Molecule `C=CCN(c1ccc(OC)cc1)S(=O)(=O)c1ccc(Cl)c(C(=O)OCC(=O)NC2CC2)c1` [2-chloro-5-[(4-methoxyphenyl)-prop-2-enylsulfamoyl]benzoic acid [2-(cyclopropylamino)-2-oxoethyl] ester] showed a pEC50 of 5.20.

Molecule `c1coc(CNc2nc3nonc3nc2NCc2ccco2)c1` [2-furfuryl-[5-(2-furfurylamino)furazano[3,4-b]pyrazin-6-yl]amine] had a pEC50 of 4.36. This pEC50 lies 0.84 log units lower than the previous one.

For the molecule `CC1=C(C(=O)OCCOc2ccccc2)C(c2ccsc2)NC(=O)N1C` (stereo not given) [2-phenoxyethyl 3,4-dimethyl-2-oxo-6-thiophen-3-yl-1,6-dihydropyrimidine-5-carboxylate], the pEC50 is 4.21. This pEC50 and that of the molecule before are within 0.2 log units of each other.
